Measurements from the supplement of paper PMC11061612.

Columns and labels:
Experiment in all cases: combination Emax (second highest fraction inhibited in the dose matrix, 72 h); higher = more inhibition; extreme values may be limits of the assay
[1] = test system: SNU-1 (Gastric Carcinoma)
Outline: (§1)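 After 24 hours at 37°C and 5% CO2 in 1536-well plates, cells in DMEM/F12 or RPMI plus 10% FBS received two-drug dose matrices for 72 hours. Viability came from CellTiter-Glo 2.0 luminescence and was scaled as inhibition, anchored at 0 by vehicle wells and at 1 by blank wells. Combination Emax is taken as the second-highest inhibition in the matrix, and Bliss excess as the observed combination effect less EA + EB − EA·EB, with EA and EB the single-agent effects.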

[2] = test system: TK (B-Cell Non-Hodgkin's Lymphoma)
Outline: as §1

[3] = test system: HT-144 (Melanoma)
Outline: as §1

[4] = test system: NCI-H1648 (Lung Adenocarcinoma)
Outline: as §1

[5] = test system: OCI-M1 (Acute Myeloid Leukemia)
Outline: as §1

[6] = test system: SBC-3 (Small Cell Lung Carcinoma)
Outline: as §1

[7] = test system: NCI-H1944 (Lung Adenocarcinoma)
Outline: as §1

[8] = test system: JURL-MK1 (Chronic Myelogenous Leukemia)
Outline: as §1

[9] = test system: OVKATE (Ovarian Carcinoma)
Outline: as §1

[10] = test system: A375 (Melanoma)
Outline: as §1

[11] = test system: NTERA-2-cl-D1 (Other Solid Carcinomas)
Outline: as §1

[12] = test system: GRANTA-519 (B-Cell Non-Hodgkin's Lymphoma)
Outline: as §1

[13] = test system: ATN-1 (T-Lymphoblastic Leukemia)
Outline: as §1

[14] = test system: BC-1 (B-Cell Non-Hodgkin's Lymphoma)
Outline: as §1

[15] = test system: GCIY (Gastric Carcinoma)
Outline: as §1

[16] = test system: NCI-H1975 (Lung Adenocarcinoma)
Outline: as §1

[17] = test system: SK-MEL-24 (Melanoma)
Outline: as §1

[18] = test system: SUP-HD1 (Hodgkin's Lymphoma)
Outline: as §1

[19] = test system: IGROV-1 (Ovarian Carcinoma)
Outline: as §1

[20] = test system: Daudi (Burkitt's Lymphoma)
Outline: as §1

Row | SMILES | combination Emax [1] | combination Emax [2] | combination Emax [3] | combination Emax [4] | combination Emax [5] | combination Emax [6] | combination Emax [7] | combination Emax [8] | combination Emax [9] | combination Emax [10] | combination Emax [11] | combination Emax [12] | combination Emax [13] | combination Emax [14] | combination Emax [15] | combination Emax [16] | combination Emax [17] | combination Emax [18] | combination Emax [19] | combination Emax [20]
1 | C=CCn1c(=O)c2cnc(Nc3ccc(N4CCN(C)CC4)cc3)nc2n1-c1cccc(C(C)(C)O)n1 [AZD1775] + C1CN(CCC1(C(=O)N[C@@H](CCO)C2=CC=C(C=C2)Cl)N)C3=NC=NC4=C3C=CN4 [Capivasertib] (first compound max 3 µM, partner max 3 µM) | 0.727 | 0.909 | 0.954 | 0.821 | 0.974 | 0.881 | 0.861 | 0.986 | 0.322 | 0.813 | 0.496 | 0.865 | 0.994 | 0.97 | 0.668 | 0.714 | 0.503 | 0.736 |  | 
2 | CN(CCO)CC[C@H](CSc1ccccc1)Nc1ccc(S(=O)(=O)NC(=O)c2ccc(N3CCC([C@@H](O)c4ccccc4-c4ccc(Cl)cc4)CC3)cc2)cc1S(=O)(=O)C(F)(F)F [AZD4320] + C1CN(CCC1(C(=O)N[C@@H](CCO)C2=CC=C(C=C2)Cl)N)C3=NC=NC4=C3C=CN4 [Capivasertib] (first compound max 1 µM, 7x7, partner max 3 µM) | 0.412 | 0.97 | 0.387 | 0.735 | 0.984 | 0.246 | 0.373 | 0.87 | 0.24 | 0.0874 | 0.409 | 0.812 | 0.715 | 0.35 | 0.576 | 0.558 | 0.452 | 0.959 | 0.767 | 0.16
3 | CN(CCO)CC[C@H](CSc1ccccc1)Nc1ccc(S(=O)(=O)NC(=O)c2ccc(N3CCC([C@@H](O)c4ccccc4-c4ccc(Cl)cc4)CC3)cc2)cc1S(=O)(=O)C(F)(F)F [AZD4320] + CC(=O)O[C@H]1C(=O)[C@@]2(C)[C@H]([C@H](OC(=O)c3ccccc3)[C@]3(O)C[C@H](OC(=O)[C@H](O)[C@@H](NC(=O)c4ccccc4)c4ccccc4)C(C)=C1C3(C)C)[C@]1(OC(C)=O)CO[C@@H]1C[C@@H]2O [Paclitaxel] (first compound max 1 µM, 7x7, partner max 3 µM) |  |  |  | 0.936 |  | 1 |  |  | 0.629 | 0.992 | 0.754 |  |  | 1 | 0.952 |  | 0.888 |  |  | 
4 | CN(CCO)CC[C@H](CSc1ccccc1)Nc1ccc(S(=O)(=O)NC(=O)c2ccc(N3CCC([C@@H](O)c4ccccc4-c4ccc(Cl)cc4)CC3)cc2)cc1S(=O)(=O)C(F)(F)F [AZD4320] + CCN(CCO)CCCOc1ccc2c(Nc3cc(CC(=O)Nc4cccc(F)c4)[nH]n3)ncnc2c1 [AZD2811] (first compound max 1 µM, 7x7, partner max 1 µM) | 0.541 | 0.993 | 0.245 | 0.571 | 0.988 | 0.523 | 0.584 | 0.929 | 0.347 | 0.506 | 0.921 | 0.993 | 0.939 | 0.662 | 0.554 | 0.411 | 0.226 | 0.966 | 0.266 | 0.351
5 | CN(CCO)CC[C@H](CSc1ccccc1)Nc1ccc(S(=O)(=O)NC(=O)c2ccc(N3CCC([C@@H](O)c4ccccc4-c4ccc(Cl)cc4)CC3)cc2)cc1S(=O)(=O)C(F)(F)F [AZD4320] + C[C@@H]1COCCN1C2=NC(=NC(=C2)C3(CC3)[S@](=N)(=O)C)C4=C5C=CNC5=NC=C4 [AZD6738] (first compound max 1 µM, 7x7, partner max 10 µM) | 0.896 | 1 | 0.765 | 0.872 | 1 | 0.925 | 0.993 | 1 | 0.621 | 0.789 |  | 0.999 | 0.978 | 0.901 | 0.918 | 0.481 | 0.556 | 0.98 | 0.876 | 0.65
6 | CN(CCO)CC[C@H](CSc1ccccc1)Nc1ccc(S(=O)(=O)NC(=O)c2ccc(N3CCC([C@@H](O)c4ccccc4-c4ccc(Cl)cc4)CC3)cc2)cc1S(=O)(=O)C(F)(F)F [AZD4320] + C[C@@H](Nc1cc(F)cc(F)c1)c1cc(C(=O)N(C)C)cc2c(=O)cc(N3CCOCC3)oc12 [AZD8186] (first compound max 1 µM, 7x7, partner max 3 µM) | 0.877 | 0.999 | 0.455 | 0.812 | 1 | 0.979 | 0.767 | 0.871 | 0.438 | 0.519 | 0.976 | 1 | 0.807 | 0.461 | 0.719 | 0.421 | 0.772 | 0.96 | 0.832 | 0.771
7 | CN(CCO)CC[C@H](CSc1ccccc1)Nc1ccc(S(=O)(=O)NC(=O)c2ccc(N3CCC([C@@H](O)c4ccccc4-c4ccc(Cl)cc4)CC3)cc2)cc1S(=O)(=O)C(F)(F)F [AZD4320] + Cc1cc2ncnn2cc1Nc1ncc2c(n1)n(C1CCOCC1)c(=O)n2C [AZD7648] (first compound max 1 µM, 7x7, partner max 10 µM) | 0.463 | 0.991 | 0.193 | 0.694 | 0.981 | 0.276 | 0.464 | 0.827 | 0.303 | 0.134 | 0.682 | 0.829 | 0.778 | 0.509 | 0.609 | 0.35 | 0.252 | 0.939 | 0.653 | 0.22
8 | Cc1cc2ncnn2cc1Nc1ncc2c(n1)n(C1CCOCC1)c(=O)n2C [AZD7648] + C=CCn1c(=O)c2cnc(Nc3ccc(N4CCN(C)CC4)cc3)nc2n1-c1cccc(C(C)(C)O)n1 [AZD1775] (first compound max 10 µM, partner max 1 µM) | 0.628 | 0.895 | 0.611 | 0.774 | 0.87 | 0.576 | 0.583 | 0.99 | 0.422 | 0.592 | 0.476 | 0.8 | 1 | 0.997 | 0.49 | 0.421 | 0.495 | 0.785 | 0.819 | 0.809
9 | Cc1cc2ncnn2cc1Nc1ncc2c(n1)n(C1CCOCC1)c(=O)n2C [AZD7648] + COc1cc([C@@H]2c3cc4c(cc3[C@@H](O[C@@H]3O[C@@H]5CO[C@@H](C)O[C@H]5[C@H](O)[C@H]3O)[C@H]3COC(=O)[C@H]23)OCO4)cc(OC)c1O [Etoposide] (first compound max 10 µM, 7x7, partner max 10 µM) |  |  |  | 0.424 |  | 0.94 |  |  | 0.266 | 0.901 | 0.575 |  |  | 0.984 | 0.759 |  | 0.677 |  |  | 
10 | COc1cc2ncnc(Nc3ccc(F)c(Cl)c3)c2cc1OCCCN1CCOCC1 [Gefitinib] + CC(C)n1c(=O)n(C)c2cnc3cc(F)c(-c4ccc(OCCCN5CCCCC5)nc4)cc3c21 [AZD1390] (first compound max 10 µM, 7x7, partner max 0.3 µM) | 0.239 | 0.076 | 0.314 | 0.646 | 0.0417 | 0.107 | 0.19 | 0.499 | 0.155 | 0.0854 | 0.284 | 0.201 | 0.296 | 0.601 | 0.459 | 0.419 | 0.246 | 0.382 |  | 0.392
11 | N#Cc1cnc(Nc2cc(NC[C@H]3CNCCO3)c(C(F)(F)F)cn2)cn1 [SRA737] + CCc1c2c(nc3ccc(O)cc13)-c1cc3c(c(=O)n1C2)COC(=O)[C@]3(O)CC [SN-38] (first compound max 10 µM, 7x7, partner max 0.3 µM) |  |  |  | 0.849 |  | 0.935 |  |  | 0.138 | 0.923 | 0.624 |  |  | 0.952 | 0.85 |  | 0.73 |  |  | 
12 | N#Cc1cnc(Nc2cc(NC[C@H]3CNCCO3)c(C(F)(F)F)cn2)cn1 [SRA737] + Nc1ccn([C@@H]2O[C@H](CO)[C@@H](O)C2(F)F)c(=O)n1 [Gemcitabine] (first compound max 10 µM, 7x7, partner max 0.3 µM) |  |  |  | 0.666 |  | 0.97 |  |  | 0.27 | 0.972 | 0.54 |  |  | 0.979 | 0.78 |  | 0.814 |  |  | 
13 | C[C@@H](c1ccc2nccn2c1)n1nnc2ncc(-c3cnn(C)c3)nc21 [Savolitinib] + CN(CC[C@H](CSC1=CC=CC=C1)NC2=C(C=C(C=C2)S(=O)(=O)NC(=O)C3=CC=C(C=C3)N4CCC(CC4)[C@H](C5=CC=CC=C5C6=CC=C(C=C6)Cl)O)S(=O)(=O)C(F)(F)F)CCO [AZD4320] (first compound max 1 µM, 7x7, partner max 1 µM) | 0.417 | 0.987 | 0.189 |  | 0.993 |  | 0.369 | 0.889 |  | 0.202 |  | 0.898 | 0.679 |  |  | 0.178 |  | 0.941 | 0.219 | 0.188
